Values after ≈ are worked out from the molar mass of the structure shown. Like-named read-outs stand apart in the source and are kept apart here.
Columns and labels:
Test in all cases: Antibacterial activity (MIC), agar dilution
Assay type in all cases: cell-based
[1] = tested on: Kl. pneumoniae Y-4*; conditions: Klebsiella pneumoniae, 20 h, Kl. pneumoniae Y-4, penicillinase-producing; 10^6 cells per ml; read-out: MIC
Description: (§1) The amount of bacteria inoculated was 10^4 cells per plate (10^6 cells per ml).
(§2) * Penicillinase-producing bacteria

[2] = tested on: E. coli TK-3*; conditions: Escherichia coli, 20 h
Description: as §1, §2

[3] = tested on: St. aureus F-137*; conditions: Staphylococcus aureus, 20 h, St. aureus F-137, penicillinase-producing; 10^6 cells per ml; read-out: MIC
Description: as §1, §2

[4] = tested on: Ps. aeruginosa GN3379*; conditions: Pseudomonas aeruginosa, Ps. aeruginosa GN3379, penicillinase-producing, 10^6 cells per ml
Description: as §1, §2

[5] = tested on: Ps. aeruginosa GN918**; conditions: Pseudomonas aeruginosa, Ps. aeruginosa GN918, cephalospolinase-producing, 10^6 cells per ml
Description: as §1
(§3) ** Cephalospolinase-producing bacteria

[6] = tested on: Pro. vulgaris GN76**; conditions: Proteus vulgaris
Description: as §1, §3

[7] = tested on: E. coli GN5482**; conditions: Escherichia coli, 20 h; E. coli GN5482, cephalospolinase-producing; 10^6 cells per ml; read-out: MIC
Description: as §1, §3

[8] = tested on: St. aureus FDA209P; conditions: Staphylococcus aureus, FDA209P, 20 h, St. aureus FDA209P; 10^6 cells per ml; 37° C., 20 hours; read-out: MIC
Description: as §1

[9] = tested on: Pro. morganii T-216; conditions: Morganella morganii, 37° C.
Description: as §1

[10] = tested on: Kl. pneumoniae Y-41; conditions: Klebsiella pneumoniae, Y41, 10^6 cells per ml, 37° C., 20 hours, read-out: MIC
Description: as §1

[11] = tested on: E. coli TK-111; conditions: Escherichia coli, TK111, 20 h, E. coli TK-111; 10^6 cells per ml; 37° C., 20 hours; read-out: MIC
Description: as §1

[12] = tested on: Kl. pneumoniae Y-50; conditions: Klebsiella pneumoniae, Y50, 20 h, 10^6 cells per ml, 37° C., read-out: MIC
Description: as §1

[13] = tested on: Pro. mirabilis T-111; conditions: Proteus mirabilis, 37° C.
Description: as §1

[14] = tested on: Ps. aeruginosa IFO3445; conditions: Pseudomonas aeruginosa
Description: as §1

[15] = tested on: Ps. aeruginosa S-68; conditions: Pseudomonas aeruginosa
Description: as §1

[16] = tested on: E. coli NIHJ JC-2; conditions: Escherichia coli, NIHJJC2, 20 h, E. coli NIHJ JC-2; 10^6 cells per ml; 37° C., 20 hours; read-out: MIC
Description: as §1

[17] = tested on: Ent. cloacae IID977; conditions: Enterobacter cloacae, IID977, 20 h
Description: as §1

[18] = tested on: Pro. vulgaris GN3027; conditions: Proteus vulgaris, GN3027, 20 h, Pro. vulgaris GN3027; 10^6 cells per ml; 37° C., 20 hours; read-out: MIC
Description: as §1

[19] = tested on: Aci. antitratus A-6; conditions: 20 h, Aci. antitratus A-6; 10^6 cells per ml; 37° C., 20 hours; read-out: MIC
Description: as §1

[20] = E. coli TK-3, penicillinase-producing, 10^6 cells per ml, read-out: MIC
[21] = 20 h, Pro. vulgaris GN76, cephalospolinase-producing, 10^6 cells per ml, read-out: MIC
[22] = Ps. aeruginosa IFO3445, 10^6 cells per ml, 37° C., 20 hours, read-out: MIC
[23] = S68, Ps. aeruginosa S-68, 10^6 cells per ml, 37° C., 20 hours, read-out: MIC
[24] = Ent. cloacae IID977, 10^6 cells per ml, 37° C., 20 hours, read-out: MIC
[25] = T216, 10^6 cells per ml, 20 hours, read-out: MIC
[26] = T111, 10^6 cells per ml, 20 hours, read-out: MIC

Row | Structure (SMILES) | MIC [1] | MIC [2, 20] | MIC [3] | MIC ([4]; 20 h, read-out: MIC) | MIC ([5]; 20 h, read-out: MIC) | MIC [6, 21] | MIC [7] | MIC [8] | MIC [10] | MIC [11] | MIC [12] | MIC ([13]; T111, 20 h, 10^6 cells per ml) | MIC [14, 22] | MIC [15, 23] | MIC [16] | MIC [17, 24] | MIC [18] | MIC [19] | MIC [9, 25] | MIC [13, 26] | also measured
1 | CN(C)c1ccc(-c2cc(=O)c(C(=O)O)cn2-c2cccc(O)c2)cc1 | 3.13 µg/mL (≈ 8.93 µM) | 0.39 µg/mL (≈ 1.11 µM) | 0.2 µg/mL (≈ 0.571 µM) | 6.25 µg/mL (≈ 17.8 µM) | 12.5 µg/mL (≈ 35.7 µM) | 0.78 µg/mL (≈ 2.23 µM) | ≤ 0.05 µg/mL | 0.2 µg/mL (≈ 0.571 µM) | 1.56 µg/mL (≈ 4.45 µM) | 0.1 µg/mL (≈ 0.285 µM) | 0.39 µg/mL (≈ 1.11 µM) | 3.13 µg/mL (≈ 8.93 µM) | 12.5 µg/mL (≈ 35.7 µM) | 6.25 µg/mL (≈ 17.8 µM) | 0.39 µg/mL (≈ 1.11 µM) | 0.78 µg/mL (≈ 2.23 µM) | 0.2 µg/mL (≈ 0.571 µM) | 0.39 µg/mL (≈ 1.11 µM) |  |  | MIC ([9]; T216, 20 h, 10^6 cells per ml): 1.56 µg/mL (≈ 4.45 µM)
2 | O=C(O)c1cn(-c2ccc(O)cc2)c(-c2ccc3ccccc3c2)cc1=O | 1.56 µg/mL (≈ 4.37 µM) | 0.39 µg/mL (≈ 1.09 µM) | ≤ 0.05 µg/mL | 3.13 µg/mL (≈ 8.76 µM) | 6.25 µg/mL (≈ 17.5 µM) | 0.39 µg/mL (≈ 1.09 µM) | ≤ 0.05 µg/mL | ≤ 0.05 µg/mL | 1.56 µg/mL (≈ 4.37 µM) | ≤ 0.05 µg/mL | 0.39 µg/mL (≈ 1.09 µM) |  | 6.25 µg/mL (≈ 17.5 µM) |  | 0.2 µg/mL (≈ 0.56 µM) | 0.39 µg/mL (≈ 1.09 µM) | 0.1 µg/mL (≈ 0.28 µM) | 0.2 µg/mL (≈ 0.56 µM) | 0.39 µg/mL (≈ 1.09 µM) | 0.78 µg/mL (≈ 2.18 µM) | MIC ([15]; S68, 20 h): 1.56 µg/mL (≈ 4.37 µM)
3 | O=C(O)c1cn(-c2ccc(O)cc2)c(-c2ccc(-c3ccccc3)s2)cc1=O | 1.56 µg/mL (≈ 4.01 µM) | 0.78 µg/mL (≈ 2 µM) | ≤ 0.05 µg/mL |  |  | 0.39 µg/mL (≈ 1 µM) | ≤ 0.05 µg/mL | ≤ 0.05 µg/mL | 3.13 µg/mL (≈ 8.04 µM) | ≤ 0.05 µg/mL | 0.78 µg/mL (≈ 2 µM) |  |  |  | 0.39 µg/mL (≈ 1 µM) |  | ≤ 0.05 µg/mL | 0.2 µg/mL (≈ 0.514 µM) | 0.78 µg/mL (≈ 2 µM) | 0.78 µg/mL (≈ 2 µM) | MIC ([4]; GN3379, 20 h): 3.13 µg/mL (≈ 8.04 µM); MIC ([5]; GN918, 20 h): 1.56 µg/mL (≈ 4.01 µM); MIC ([14]; IFO3445, 20 h): 3.13 µg/mL (≈ 8.04 µM); MIC ([15]; S68, 20 h): 3.13 µg/mL (≈ 8.04 µM); MIC [17]: 1.56 µg/mL (≈ 4.01 µM)
4 | CN(C)c1ccc(-c2cc(=O)c(C(=O)O)cn2-c2cccc3c(O)cccc23)cc1 | 6.25 µg/mL (≈ 15.6 µM) | 1.56 µg/mL (≈ 3.9 µM) | ≤ 0.05 µg/mL | > 100 µg/mL |  | 1.56 µg/mL (≈ 3.9 µM) | ≤ 0.05 µg/mL | 0.1 µg/mL (≈ 0.25 µM) | 6.25 µg/mL (≈ 15.6 µM) | ≤ 0.05 µg/mL | 0.78 µg/mL (≈ 1.95 µM) |  | 12.5 µg/mL (≈ 31.2 µM) | 12.5 µg/mL (≈ 31.2 µM) | 0.39 µg/mL (≈ 0.974 µM) | 1.56 µg/mL (≈ 3.9 µM) | 1.56 µg/mL (≈ 3.9 µM) | 0.39 µg/mL (≈ 0.974 µM) | 3.13 µg/mL (≈ 7.82 µM) | 3.13 µg/mL (≈ 7.82 µM) | MIC ([5]; GN918, 20 h): 6.25 µg/mL (≈ 15.6 µM)
5 | O=C(O)c1cn(-c2ccc(F)cc2)c(/C=C/c2ccccc2)cc1=O | 25 µg/mL (≈ 74.6 µM) |  | 3.13 µg/mL (≈ 9.33 µM) | 25 µg/mL (≈ 74.6 µM) | 50 µg/mL (≈ 149 µM) | 3.13 µg/mL (≈ 9.33 µM) | 0.39 µg/mL (≈ 1.16 µM) | 3.13 µg/mL (≈ 9.33 µM) | 12.5 µg/mL (≈ 37.3 µM) | 1.56 µg/mL (≈ 4.65 µM) | 6.25 µg/mL (≈ 18.6 µM) | 12.5 µg/mL (≈ 37.3 µM) | 50 µg/mL (≈ 149 µM) | 25 µg/mL (≈ 74.6 µM) | 3.13 µg/mL (≈ 9.33 µM) |  | 0.78 µg/mL (≈ 2.33 µM) | 1.56 µg/mL (≈ 4.65 µM) |  |  | MIC [2]: 12.5 µg/mL (≈ 37.3 µM); MIC ([9]; T216, 20 h, 10^6 cells per ml): 12.5 µg/mL (≈ 37.3 µM); MIC [17]: 12.5 µg/mL (≈ 37.3 µM)
6 | CN(C)c1ccc(-c2cc(=O)c(C(=O)O)cn2-c2ccc(F)cc2)cc1 | 12.5 µg/mL (≈ 35.5 µM) | 3.13 µg/mL (≈ 8.88 µM) | 0.78 µg/mL (≈ 2.21 µM) |  |  |  | 0.2 µg/mL (≈ 0.568 µM) | 0.78 µg/mL (≈ 2.21 µM) | 6.25 µg/mL (≈ 17.7 µM) | 0.39 µg/mL (≈ 1.11 µM) | 1.56 µg/mL (≈ 4.43 µM) | 6.25 µg/mL (≈ 17.7 µM) | 25 µg/mL (≈ 70.9 µM) |  | 0.78 µg/mL (≈ 2.21 µM) | 3.13 µg/mL (≈ 8.88 µM) | 0.39 µg/mL (≈ 1.11 µM) | 0.39 µg/mL (≈ 1.11 µM) | 3.13 µg/mL (≈ 8.88 µM) |  | MIC ([4]; GN3379, 20 h): 12.5 µg/mL (≈ 35.5 µM); MIC ([5]; GN918, 20 h): 12.5 µg/mL (≈ 35.5 µM); MIC ([6]; GN76, 20 h): 1.56 µg/mL (≈ 4.43 µM); MIC ([15]; S68, 20 h): 12.5 µg/mL (≈ 35.5 µM)

From patent US4698352A, “4-oxo-1,4-dihydronicotinic acid derivatives, salts thereof, and antibacterial agents containing the same” (Toyama Chemical Co., Ltd., priority 1982, dated 1987)
